According to patent US11331299B2, “Medicinal use of serrulatane diterpenes” (The University of Sydney, priority 2016, dated 2022):

Key:
[1] = biological target: TIP60(h) (Homo sapiens, UniProt Q92993); test: Epigenetic enzyme assay, Histone acetyltransferases (HATs); type: biochemical; conditions: read-out: % Inhibition of Control Values
[2] = tested on: Chemokine CXCR1/2 (IL-8, Non-Selective); test: Chemokine CXCR1/2 (IL-8, Non-Selective) radio ligand binding; parameters: species or system Human; conditions: 10 μM; assay year 2015
Procedure: (§1) The in vitro pharmacological studies were conducted by Eurofins PanLab (Taiwan) using the parameters shown in Table 13 with respect to appropriate literature references.

[3] = biological target: PRMT3 (h) (Homo sapiens, UniProt O60678); test: Epigenetic enzyme assay, Methyltransferases (MTs); type: biochemical; conditions: 10 μM; read-out: % Inhibition of Control Values
PRMT3 (h), sequence (O60678 whole entry): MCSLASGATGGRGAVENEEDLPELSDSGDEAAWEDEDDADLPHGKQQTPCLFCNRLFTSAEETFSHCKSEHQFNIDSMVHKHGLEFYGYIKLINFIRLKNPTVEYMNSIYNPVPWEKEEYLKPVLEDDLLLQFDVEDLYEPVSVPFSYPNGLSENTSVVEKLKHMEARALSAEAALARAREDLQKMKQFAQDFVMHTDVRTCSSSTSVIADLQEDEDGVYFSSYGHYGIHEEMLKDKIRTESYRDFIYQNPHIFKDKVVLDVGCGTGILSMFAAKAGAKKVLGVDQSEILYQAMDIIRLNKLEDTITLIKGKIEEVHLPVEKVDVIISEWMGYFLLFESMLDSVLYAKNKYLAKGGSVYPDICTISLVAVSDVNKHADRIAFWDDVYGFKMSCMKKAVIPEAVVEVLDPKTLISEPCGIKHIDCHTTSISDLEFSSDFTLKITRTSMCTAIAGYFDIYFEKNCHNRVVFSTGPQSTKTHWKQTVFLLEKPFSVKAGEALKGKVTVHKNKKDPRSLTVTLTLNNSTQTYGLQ

[4] = tested on: H3K27 me3; test: Cell-based detection methyl modifications; conditions: read-out: % Inhibition of Control Values
[5] = biological target: T1, PB1(2) (h) bromodomain (Homo sapiens, UniProt Q86U86); test: Epigenetic binding assay, Bromodomain; conditions: read-out: % Inhibition of Control Specific Binding
T1 construct: Bromodomain
T1 sequence (Q86U86 177-287 limits assumed): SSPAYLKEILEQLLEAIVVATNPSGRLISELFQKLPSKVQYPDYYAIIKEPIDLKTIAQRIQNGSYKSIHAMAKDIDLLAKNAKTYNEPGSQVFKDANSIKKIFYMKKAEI

[6] = biological target: T2, Phospholipase sPLA2-V (Homo sapiens, UniProt P39877); test: Phospholipase sPLA2-V; type: biochemical; conditions: assay year 2015, read-out: % Control Response
T2 construct: host or cells: E. coli
T2 sequence (P39877 21-138): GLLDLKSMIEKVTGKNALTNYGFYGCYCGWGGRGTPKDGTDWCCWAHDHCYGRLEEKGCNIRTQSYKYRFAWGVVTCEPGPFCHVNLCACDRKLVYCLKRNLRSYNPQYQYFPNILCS
Procedure: as §1

[7] = biological target: T3, Epidermal Growth Factor (EGF) (Homo sapiens, UniProt P00533); test: Epidermal Growth Factor (EGF) radio ligand binding; conditions: assay year 2015, read-out: % Control Response
T3 construct: Human A431 cells; endogenous in cells; host or cells: A431 cells
T3 sequence (P00533 25-1210): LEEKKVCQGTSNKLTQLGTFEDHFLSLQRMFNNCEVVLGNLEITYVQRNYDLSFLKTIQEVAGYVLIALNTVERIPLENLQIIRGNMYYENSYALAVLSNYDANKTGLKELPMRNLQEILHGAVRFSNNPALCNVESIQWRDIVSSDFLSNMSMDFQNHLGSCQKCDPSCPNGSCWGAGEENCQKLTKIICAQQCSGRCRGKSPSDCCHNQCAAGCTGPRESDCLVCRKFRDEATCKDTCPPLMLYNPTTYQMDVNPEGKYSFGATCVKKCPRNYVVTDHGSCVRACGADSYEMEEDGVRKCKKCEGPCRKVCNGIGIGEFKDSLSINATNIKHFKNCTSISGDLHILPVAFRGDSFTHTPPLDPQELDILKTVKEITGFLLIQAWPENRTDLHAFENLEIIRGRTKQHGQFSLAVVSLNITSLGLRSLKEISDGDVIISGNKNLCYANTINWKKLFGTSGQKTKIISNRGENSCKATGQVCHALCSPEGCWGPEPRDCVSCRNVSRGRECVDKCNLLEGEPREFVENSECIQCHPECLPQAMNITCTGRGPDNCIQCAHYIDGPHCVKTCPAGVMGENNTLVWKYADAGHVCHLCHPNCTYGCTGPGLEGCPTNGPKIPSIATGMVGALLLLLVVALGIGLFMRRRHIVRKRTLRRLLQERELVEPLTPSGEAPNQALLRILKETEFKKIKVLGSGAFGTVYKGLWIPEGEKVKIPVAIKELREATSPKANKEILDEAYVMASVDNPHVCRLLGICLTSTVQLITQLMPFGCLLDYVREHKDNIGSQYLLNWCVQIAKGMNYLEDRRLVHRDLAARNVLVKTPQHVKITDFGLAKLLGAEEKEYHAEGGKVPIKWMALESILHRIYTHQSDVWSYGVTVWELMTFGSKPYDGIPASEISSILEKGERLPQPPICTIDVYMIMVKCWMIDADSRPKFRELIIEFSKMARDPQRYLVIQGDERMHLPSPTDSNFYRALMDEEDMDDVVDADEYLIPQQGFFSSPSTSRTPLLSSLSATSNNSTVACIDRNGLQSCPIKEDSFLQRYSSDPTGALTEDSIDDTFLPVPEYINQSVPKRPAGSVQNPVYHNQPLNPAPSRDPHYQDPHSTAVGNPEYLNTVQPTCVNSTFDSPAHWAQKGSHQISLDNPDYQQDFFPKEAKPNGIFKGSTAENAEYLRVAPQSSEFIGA
Procedure: as §1

[8] = tested on: NF-κB; test: Transcription Response, NF-κB; type: cell-based, Human; conditions: Antagonist; for IC50: Homo sapiens
Procedure: as §1

[9] = biological target: HDAC1 (h) (Homo sapiens, UniProt Q13547); test: Epigenetic enzyme assay, Histone deacetylase (HDACs); type: biochemical; conditions: read-out: % Inhibition of Control Values
HDAC1 (h), sequence (Q13547 whole entry): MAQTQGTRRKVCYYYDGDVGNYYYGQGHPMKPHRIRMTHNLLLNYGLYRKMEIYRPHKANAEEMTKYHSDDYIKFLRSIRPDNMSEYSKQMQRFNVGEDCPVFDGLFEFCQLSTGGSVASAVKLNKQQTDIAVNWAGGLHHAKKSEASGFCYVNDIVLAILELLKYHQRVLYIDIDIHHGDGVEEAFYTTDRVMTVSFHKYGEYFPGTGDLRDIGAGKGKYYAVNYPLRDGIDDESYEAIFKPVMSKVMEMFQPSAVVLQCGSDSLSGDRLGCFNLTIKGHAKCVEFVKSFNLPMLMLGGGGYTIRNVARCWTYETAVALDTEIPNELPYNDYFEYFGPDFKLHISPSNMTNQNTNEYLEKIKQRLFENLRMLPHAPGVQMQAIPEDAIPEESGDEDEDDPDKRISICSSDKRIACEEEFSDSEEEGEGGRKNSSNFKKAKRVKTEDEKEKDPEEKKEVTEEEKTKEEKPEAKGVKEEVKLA

[10] = biological target: HDAC4 (h) (Homo sapiens, UniProt P56524); test: as above; type: biochemical; conditions: read-out: % Inhibition of Control Values
HDAC4 (h), sequence (P56524 whole entry): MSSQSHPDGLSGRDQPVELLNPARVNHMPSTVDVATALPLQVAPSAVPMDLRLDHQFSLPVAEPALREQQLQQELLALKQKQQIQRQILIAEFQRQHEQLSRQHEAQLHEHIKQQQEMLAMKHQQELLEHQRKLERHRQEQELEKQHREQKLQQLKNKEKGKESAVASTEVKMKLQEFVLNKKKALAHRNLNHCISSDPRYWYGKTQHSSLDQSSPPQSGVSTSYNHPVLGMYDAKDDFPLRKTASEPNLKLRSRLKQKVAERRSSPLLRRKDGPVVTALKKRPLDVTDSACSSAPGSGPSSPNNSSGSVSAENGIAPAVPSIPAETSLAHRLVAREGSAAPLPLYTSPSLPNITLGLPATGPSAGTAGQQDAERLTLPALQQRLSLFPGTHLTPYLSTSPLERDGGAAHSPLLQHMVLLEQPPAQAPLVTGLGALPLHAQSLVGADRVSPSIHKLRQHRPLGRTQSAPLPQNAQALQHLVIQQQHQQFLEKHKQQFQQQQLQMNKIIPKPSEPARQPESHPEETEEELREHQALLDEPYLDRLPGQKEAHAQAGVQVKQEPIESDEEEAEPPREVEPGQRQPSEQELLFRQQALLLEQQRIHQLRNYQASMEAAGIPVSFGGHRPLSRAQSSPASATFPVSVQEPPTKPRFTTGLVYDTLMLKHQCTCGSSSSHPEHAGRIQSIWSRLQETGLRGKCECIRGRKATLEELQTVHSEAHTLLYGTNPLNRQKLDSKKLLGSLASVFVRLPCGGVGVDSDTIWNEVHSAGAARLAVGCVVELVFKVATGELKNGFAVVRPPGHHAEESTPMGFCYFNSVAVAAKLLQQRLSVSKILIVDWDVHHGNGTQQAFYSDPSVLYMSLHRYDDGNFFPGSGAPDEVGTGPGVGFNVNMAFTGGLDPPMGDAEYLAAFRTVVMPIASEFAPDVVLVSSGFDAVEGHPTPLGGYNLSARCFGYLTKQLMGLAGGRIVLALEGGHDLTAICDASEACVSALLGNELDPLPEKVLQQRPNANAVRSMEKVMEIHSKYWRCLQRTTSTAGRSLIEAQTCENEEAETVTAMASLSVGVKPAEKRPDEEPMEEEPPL

[11] = biological target: T4, Chemokine CCR2B (Homo sapiens, UniProt P41597); test: Chemokine CCR2B radio ligand binding; conditions: assay year 2015, read-out: % Control Response
T4 construct: expressed in transfected cells; host or cells: CHO-K1 cells
T4 sequence (P41597 1-360 isoform P41597-2): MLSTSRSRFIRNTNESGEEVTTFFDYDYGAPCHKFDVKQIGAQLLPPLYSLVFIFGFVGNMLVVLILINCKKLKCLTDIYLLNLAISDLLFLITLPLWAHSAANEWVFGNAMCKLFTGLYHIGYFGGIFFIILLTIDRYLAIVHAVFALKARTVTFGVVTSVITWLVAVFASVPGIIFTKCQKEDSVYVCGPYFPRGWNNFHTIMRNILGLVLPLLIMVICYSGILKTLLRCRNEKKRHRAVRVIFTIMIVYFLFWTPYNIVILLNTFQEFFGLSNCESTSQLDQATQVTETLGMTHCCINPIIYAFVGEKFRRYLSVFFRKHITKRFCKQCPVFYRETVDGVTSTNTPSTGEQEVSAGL
Procedure: as §1

[12] = biological target: T5, Nicotinamide N-methyltransferase (h) (Homo sapiens, UniProt P40261); test: Epigenetic enzyme assay, Small molecule methyltransferases; type: biochemical; conditions: read-out: % Inhibition of Control Values
T5 sequence (P40261 1-264): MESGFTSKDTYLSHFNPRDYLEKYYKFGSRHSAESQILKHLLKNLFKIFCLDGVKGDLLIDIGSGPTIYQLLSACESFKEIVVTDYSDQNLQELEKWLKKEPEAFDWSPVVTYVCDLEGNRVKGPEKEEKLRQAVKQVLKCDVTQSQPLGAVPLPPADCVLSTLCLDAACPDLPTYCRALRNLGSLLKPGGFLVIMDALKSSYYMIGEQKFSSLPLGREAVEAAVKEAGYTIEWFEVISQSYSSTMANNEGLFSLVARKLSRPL

[13] = tested on: 43 cancer cell lines and one normal cell line; test: In vitro cell viability assay (intracellular ATP, 72 hour); type: cell-based; conditions: 10 μM
[14] = LL/2 (Non-Small Cell Lung Cancer)
[15] = NCI-H460 (Non-Small Cell Lung Cancer)
[16] = PC-6 (Non-Small Cell Lung Cancer)

TIP60(h), sequence (Q92993 whole entry): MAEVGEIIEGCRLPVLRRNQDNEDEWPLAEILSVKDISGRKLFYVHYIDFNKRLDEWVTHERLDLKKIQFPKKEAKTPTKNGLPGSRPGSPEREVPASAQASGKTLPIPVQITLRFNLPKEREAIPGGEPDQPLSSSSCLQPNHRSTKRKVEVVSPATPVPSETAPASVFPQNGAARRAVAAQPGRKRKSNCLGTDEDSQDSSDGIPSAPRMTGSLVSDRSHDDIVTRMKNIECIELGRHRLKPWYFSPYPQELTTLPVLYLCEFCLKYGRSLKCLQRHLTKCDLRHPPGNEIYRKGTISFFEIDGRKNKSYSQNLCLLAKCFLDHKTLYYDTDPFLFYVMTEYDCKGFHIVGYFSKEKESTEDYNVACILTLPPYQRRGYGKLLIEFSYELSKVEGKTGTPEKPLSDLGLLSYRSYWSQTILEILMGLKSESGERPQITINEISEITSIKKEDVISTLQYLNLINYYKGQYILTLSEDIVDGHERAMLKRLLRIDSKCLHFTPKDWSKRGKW

CC(C)=CCC[C@@H]1C(O)Oc2c(C)cc(O)c3c2[C@H]1CC[C@H]3C (stereo partly shown) [Compound 2, 5,18-epoxyserrulat-14-en-8,18-diol]
inhibition at 10 µM [1]: 10%
% Control Response [2]: −28%
inhibition at 10 µM [3]: 50%
inhibition at 10 µM [4]: -7%
inhibition at 10 µM [5]: 22%
remaining activity at 10 µM [6]: 3%
remaining activity at 10 µM [7]: -9%
Resp Av % ([8]; Conc 0.001 μM): −7%
Resp Av % ([8]; Conc 0.01 μM): −7%
Resp Av % ([8]; Conc 0.1 μM): −3%
Resp Av % ([8]; Conc 1 μM): 10%
Resp Av % ([8]; Conc 10 μM): 34%
IC50 [8]: > 10 µM
inhibition at 10 µM [9]: -1%
inhibition at 10 µM [10]: -20%
remaining activity at 10 µM [11]: -23%
inhibition at 10 µM [12]: -2%
effect on cell viability ([13]; remaining cell lines (other than HL-60)): no significant effect
% Cell growth ([13]; 4T1 (Breast Cancer)): 60%
% Cell growth ([13]; A375 (Skin)): 74%
% Cell growth ([13]; A-431 (Skin)): 100%
% Cell growth ([13]; A-498 (Kidney Cancer)): 91%
% Cell growth ([13]; ACHN (Kidney Cancer)): 101%
% Cell growth ([13]; B16-F0 (Melanoma)): 123%
% Cell growth ([13]; BT474 (Breast Cancer)): 118%
% Cell growth ([13]; CT26.WT (Colon Cancer)): 120%
% Cell growth ([13]; DLD-1 (Colon Cancer)): 95%
% Cell growth ([13]; H33HJ-JA1 (Lymphoma)): 57%
% Cell growth ([13]; HC-4 (Liver Cancer)): 104%
% Cell growth ([13]; HCT-15 (Colon Cancer)): 94%
% Cell growth ([13]; HCT-116 (Colon Cancer)): 81%
% Cell growth ([13]; HT-29 (Colon Cancer)): 107%
% Cell growth ([13]; Hep3B (Liver Cancer)): 87%
% Cell growth ([13]; HepG2 (Liver Cancer)): 95%
% Cell growth ([13]; K-562 (Leukemia)): 69%
% Cell growth ([13]; KATO III (Stomach)): 84%
% Cell growth [13, 14]: 105%
% Cell growth ([13]; LNCaP (Prostrate Cancer)): 73%
% Cell growth ([13]; MCF7 (Breast Cancer)): 114%
% Cell growth ([13]; MCF-7 AdrR (Breast Cancer)): 92%
% Cell growth ([13]; MDA-MB-231 (Breast Cancer)): 97%
% Cell growth ([13]; MDA-MB-468 (Breast Cancer)): 37%
% Cell growth ([13]; MES-SA (Uterus)): 75%
% Cell growth ([13]; MIA PaCa-2 (Pancreas)): 92%
% Cell growth ([13]; MOLT-4 (Leukemia)): 38%
% Cell growth ([13]; MV-411 (Leukemia)): 37%
% Cell growth [13, 15]: 88%
% Cell growth ([13]; OVCAR-3 (Ovarian Cancer)): 67%
% Cell growth ([13]; PANC-1 (Pancreas)): 87%
% Cell growth ([13]; PC-3 (Prostrate Cancer)): 99%
% Cell growth [13, 16]: 92%
% Cell growth ([13]; Ramos (Lymphoma)): 33%
% Cell growth ([13]; SK-MEL-5 (Melanoma)): 95%
% Cell growth ([13]; SK-N-MC (Brain)): 73%
% Cell growth ([13]; SK-OV-3 (Ovarian Cancer)): 82%
% Cell growth ([13]; SW-620 (Colon Cancer)): 97%
% Cell growth ([13]; T-47D (Breast Cancer)): 104%
% Cell growth ([13]; U937 (Lymphoma)): 102%
% Cell growth ([13]; U-87 MG (Brain)): 101%

CC(C)=CCC[C@@H]1COc2c(C)cc(O)c3c2[C@H]1CC[C@H]3C [Compound 3, 5,18-epoxy-8-hydroxyserrulat-14-ene]
inhibition at 10 µM [1]: -3%
% Control Response [2]: −1%
inhibition at 10 µM [3]: 14%
inhibition at 10 µM [4]: 0%
inhibition at 10 µM [5]: 13%
remaining activity at 10 µM [6]: 0%
remaining activity at 10 µM [7]: 4%
Resp Av % ([8]; Conc 0.001 μM): −16%
Resp Av % ([8]; Conc 0.01 μM): −11%
Resp Av % ([8]; Conc 0.1 μM): −7%
Resp Av % ([8]; Conc 1 μM): 1%
Resp Av % ([8]; Conc 10 μM): −19%
IC50 [8]: > 10 µM
inhibition at 10 µM [9]: -1%
inhibition at 10 µM [10]: -11%
remaining activity at 10 µM [11]: -10%
inhibition at 10 µM [12]: -2%
effect on cell viability ([13]; all 44 cell lines): no significant effect
% Cell growth ([13]; 4T1 (Breast Cancer)): 99%
% Cell growth ([13]; A375 (Skin)): 100%
% Cell growth ([13]; A-431 (Skin)): 102%
% Cell growth ([13]; A-498 (Kidney Cancer)): 92%
% Cell growth ([13]; ACHN (Kidney Cancer)): 105%
% Cell growth ([13]; B16-F0 (Melanoma)): 116%
% Cell growth ([13]; BT474 (Breast Cancer)): 108%
% Cell growth ([13]; CT26.WT (Colon Cancer)): 103%
% Cell growth ([13]; DLD-1 (Colon Cancer)): 101%
% Cell growth ([13]; H33HJ-JA1 (Lymphoma)): 90%
% Cell growth ([13]; HC-4 (Liver Cancer)): 105%
% Cell growth ([13]; HCT-15 (Colon Cancer)): 116%
% Cell growth ([13]; HCT-116 (Colon Cancer)): 99%
% Cell growth ([13]; HT-29 (Colon Cancer)): 101%
% Cell growth ([13]; Hep3B (Liver Cancer)): 84%
% Cell growth ([13]; HepG2 (Liver Cancer)): 103%
% Cell growth ([13]; K-562 (Leukemia)): 93%
% Cell growth ([13]; KATO III (Stomach)): 105%
% Cell growth [13, 14]: 111%
% Cell growth ([13]; LNCaP (Prostrate Cancer)): 84%
% Cell growth ([13]; MCF7 (Breast Cancer)): 112%
% Cell growth ([13]; MCF-7 AdrR (Breast Cancer)): 101%
% Cell growth ([13]; MDA-MB-231 (Breast Cancer)): 100%
% Cell growth ([13]; MDA-MB-468 (Breast Cancer)): 85%
% Cell growth ([13]; MES-SA (Uterus)): 94%
% Cell growth ([13]; MIA PaCa-2 (Pancreas)): 106%
% Cell growth ([13]; MOLT-4 (Leukemia)): 77%
% Cell growth ([13]; MV-411 (Leukemia)): 76%
% Cell growth [13, 15]: 100%
% Cell growth ([13]; OVCAR-3 (Ovarian Cancer)): 86%
% Cell growth ([13]; PANC-1 (Pancreas)): 116%
% Cell growth ([13]; PC-3 (Prostrate Cancer)): 64%
% Cell growth [13, 16]: 96%
% Cell growth ([13]; Ramos (Lymphoma)): 129%
% Cell growth ([13]; SK-MEL-5 (Melanoma)): 118%
% Cell growth ([13]; SK-N-MC (Brain)): 82%
% Cell growth ([13]; SK-OV-3 (Ovarian Cancer)): 98%
% Cell growth ([13]; SW-620 (Colon Cancer)): 107%
% Cell growth ([13]; T-47D (Breast Cancer)): 119%
% Cell growth ([13]; U937 (Lymphoma)): 105%
% Cell growth ([13]; U-87 MG (Brain)): 111%
